Assay results taken from ChEMBL document CHEMBL5104211, “Design and synthesis of bile acid derivatives and their activity against colon cancer” (RSC Med Chem, 2022).
Active and inactive are the calls of the source. The calls are words filed in the database; no cut-off is given here.

Key:
HCT-116 [1] = test: Induction of apoptosis in human HCT-116 cells assessed as viable cells at 30 micromol/L incubated for 48 hrs by annexin V-FITC and propidium iodide staining based flow cytometry analysis (reference value: 89.29%); type: functional; conditions: HCT-116, 48 h, dose 30 µmol/L, read-out: Activity
HCT-116 [2] = test: Anticancer activity in human HCT-116 cells assessed as downregulation of phosphorylated STAT3 level at 30 micromol/L incubated for 48 hrs by Western blot analysis; type: functional, cell-based; conditions: dose 30.0 µmol/L
HCT-116 [3] = test: Anticancer activity against human HCT-116 cells assessed as inhibition of cell proliferation at 20 to 40 micromol/L incubated for 24 to 72 hrs by MTT assay; type: functional, cell-based; conditions: dose 20-40 µmol/L, time 24-72 hrs, TDE = time-dependent effect
Huh-7 = test: Anticancer activity against human Huh-7 cells assessed as inhibition of cell proliferation by MTT assay; type: functional, cell-based
RKO = test: Anticancer activity against human RKO cells assessed as inhibition of cell proliferation by MTT assay; type: functional, cell-based
HCT-116 [4] = test: Induction of apoptosis in human HCT-116 cells assessed as necrotic cells at 30 micromol/L incubated for 48 hrs by annexin V-FITC and propidium iodide staining based flow cytometry analysis (reference value: 0.88%); type: functional; conditions: dose 30 µmol/L, at 30 µM
HCT-116 [5] = test: Induction of mitochondrial membrane potential loss in human HCT-116 cells and measured after 48 hrs by TRME staining based flow cytometric analysis (reference value: 97.52%); type: functional
SW480 = test: Anticancer activity against human SW480 cells assessed as inhibition of cell proliferation by MTT assay; type: functional, cell-based
MGC-803 = test: Anticancer activity against human MGC-803 cells assessed as inhibition of cell proliferation by MTT assay; type: functional, cell-based
SK-HEP1 = test: Anticancer activity against human SK-HEP1 cells assessed as inhibition of cell proliferation by MTT assay; type: functional, cell-based
HCT-116 [6] = test: Anticancer activity against human HCT-116 cells assessed as decrease in size of colonies at 25 micromol/L and measured after 48 hrs by crystal violet dye based colony formation assay; type: functional, cell-based; conditions: dose 25.0 µmol/L
HCT-116 [7] = test: Induction of apoptosis in human HCT-116 cells assessed as retraction of the nucleus at 30 micromol/L incubated for 48 hrs by Giemsa staining based fluorescence microscopy; type: functional, cell-based; conditions: dose 30.0 µmol/L
A549 = test: Anticancer activity against human A549 cells assessed as inhibition of cell proliferation by MTT assay; type: functional, cell-based
HCT-116 [8] = test: […] activity in human HCT-116 cells assessed as upregulation of cleaved caspase-3 level at 30 micromol/L incubated for 48 hrs by Western blot analysis; type: functional, cell-based; conditions: dose 30.0 µmol/L
HCT-116 [9] = test: Induction of ROS generation in human HCT-116 cells assessed as increase in intracellular ROS level incubated for 48 hrs by DCFH-DA staining based flow cytometric analysis (Rvb=73.65%); type: functional
HCT-116 [10] = test: Induction of apoptosis in human HCT-116 cells assessed as retraction of the cytoplasm at 30 micromol/L incubated for 48 hrs by Giemsa staining based fluorescence microscopy; type: functional, cell-based; conditions: dose 30.0 µmol/L
HCT-116 [11] = test: Induction of apoptosis in human HCT-116 cells assessed as late apoptotic cells at 30 micromol/L incubated for 48 hrs by annexin V-FITC and propidium iodide staining based flow cytometry analysis (reference value: 7.13%); type: functional; conditions: dose 30 µmol/L, at 30 µM
LoVo = test: Anticancer activity against human LoVo cells assessed as inhibition of cell proliferation by MTT assay; type: functional, cell-based
HCT-116 [12] = test: Induction of apoptosis in human HCT-116 cells assessed as early apoptotic cells at 30 micromol/L incubated for 48 hrs by annexin V-FITC and propidium iodide staining based flow cytometry analysis (reference value: 2.69%); type: functional; conditions: dose 30 µmol/L, at 30 µM
HCT-116 [13] = test: Inhibition of cell invasion in human HCT-116 cells at 20 micromol/L and measured after 24 hrs by crystal violet staining based transwell assay; type: functional; conditions: HCT-116, 24 h, dose 20 µmol/L
HCT-116 [14] = test: Anticancer activity against human HCT-116 cells assessed as decrease in number of colonies at 25 micromol/L and measured after 48 hrs by crystal violet dye based colony formation assay; type: functional, cell-based; conditions: dose 25.0 µmol/L
HCT-116 [15] = test: Anticancer activity against human HCT-116 cells assessed as inhibition of cell proliferation by MTT assay; type: functional, cell-based
HCT-116 [16] = test: Induction of apoptosis in human HCT-116 cells assessed as unclear cell rupture edges at 30 micromol/L incubated for 48 hrs by Giemsa staining based fluorescence microscopy; type: functional; conditions: dose 30.0 µmol/L
HT-29 = test: Anticancer activity against human HT-29 cells assessed as inhibition of cell proliferation by MTT assay; type: functional, cell-based
HCT-116 [17] = test: Induction of apoptosis in human HCT-116 cells assessed as contraction of cell volume at 30 micromol/L incubated for 48 hrs by Giemsa staining based fluorescence microscopy; type: functional; conditions: dose 30.0 µmol/L
[18] = Cytotoxicity against human WI-38 cells assessed as inhibition of cell proliferation by MTT assay; type: toxicity, cell-based
HCT-116 [19] = test: Anticancer activity against human HCT-116 cells assessed as inhibition of cell proliferation at 25 micromol/L incubated for 24 hrs by MTT assay; type: functional; conditions: HCT-116, 24 h, dose 25 µmol/L
HCT-116 [20] = test: Induction of cell cycle arrest in human HCT-116 cells assessed as accumulation G2/M phase at 25 micromol/L and measured after 48 hrs by propidium iodide staining based flow cytometry analysis (Rvb= 11%); type: functional; conditions: dose 25 µmol/L, at 25 µM
HCT-116 [21] = test: Induction of apoptosis in human HCT-116 cells assessed as apoptotic body formation at 30 micromol/L incubated for 48 hrs by Giemsa staining based fluorescence microscopy; type: functional, cell-based; conditions: dose 30.0 µmol/L
HCT-116 [22] = test: […] activity in human HCT-116 cells assessed as downregulation of Bcl-2 level at 30 micromol/L incubated for 48 hrs by Western blot analysis; type: functional, cell-based; conditions: dose 30.0 µmol/L
HCT-116 [23] = test: Inhibition of cell migration in human HCT-116 cells at 20 micromol/L and measured after 24 hrs by crystal violet staining based transwell assay; type: functional; conditions: dose 20.0 µmol/L
HCT-116 [24] = test: Anticancer activity against human HCT-116 cells assessed as inhibition of cell proliferation at 30 micromol/L incubated for 24 hrs by MTT assay; type: functional; conditions: HCT-116, 24 h, dose 30 µmol/L
HCT-116 [25] = test: Anticancer activity against human HCT-116 cells assessed as inhibition of cell proliferation at 5 to 50 micromol/L incubated for 24 hrs by MTT assay; type: functional, cell-based; conditions: dose 5-50 µmol/L, DDE = dose-dependent effect
RAW264.7 [26] = test: Anti-inflammatory activity against mouse RAW264.7 cells assessed as inhibition of LPS-induced NO production at 10 micromol/L incubated for 24 hrs in presence of LPS by Griess reagent-based assay; type: functional; conditions: RAW264.7, 24 h, dose 10 µmol/L
RAW264.7 [27] = test: Anti-inflammatory activity against mouse RAW264.7 cells assessed as inhibition of LPS-induced NO production incubated for 24 hrs in presence of LPS by Griess reagent-based assay; type: functional, cell-based; conditions: RAW264.7, 24 h
RAW264.7 [28] = test: Anti-inflammatory activity against mouse RAW264.7 cells assessed as inhibition of LPS-induced NO production at 25 micromol/L incubated for 24 hrs in presence of LPS by Griess reagent-based assay; type: functional; conditions: RAW264.7, 24 h, dose 25 µmol/L
RAW264.7 [29] = test: Anti-inflammatory activity against mouse RAW264.7 cells assessed as downregulation of LPS-induced TNF-alpha level at 10 to 25 micromol/L incubated for 24 hrs in presence of LPS by ELISA; type: functional, cell-based; conditions: dose 10-25 µmol/L, DDE = dose-dependent effect
RAW264.7 [30] = test: Anti-inflammatory activity against mouse RAW264.7 cells assessed as downregulation of LPS-induced TNF-alpha level at 25 micromol/L incubated for 24 hrs in presence of LPS by ELISA; type: functional; conditions: dose 25 µmol/L, at 25 µM

For `COC(=O)[C@H](CCSC)NC(=O)CC[C@@H](C)[C@H]1CC[C@H]2[C@@H]3[C@H](O)C[C@@H]4C[C@H](O)CC[C@]4(C)[C@H]3CC[C@]12C`, the viability at 30 µM (HCT-116 [1]) was 43.1%, the Activity (HCT-116 [2]) was “Active” and the inhibition (HCT-116 [3]) was “Tde”. For the same molecule, the IC50 (Huh-7) was 68 µM, the IC50 (RKO) was 27.3 µM and the Activity (HCT-116 [4]) was 0.71%. The Activity (HCT-116 [5]) was 79.54%, the IC50 (SW480) was 23.6 µM and the IC50 (MGC-803) was 31.5 µM. The IC50 (SK-HEP1) was 38.6 µM, the Activity (HCT-116 [6]) was “Active” and the Activity (HCT-116 [7]) was “Active”. For the same molecule, the IC50 (A549) was 79.8 µM, the Activity (HCT-116 [8]) was “Active” and the Activity (HCT-116 [9]) was 86.51%. The Activity (HCT-116 [10]) was “Active”, the Activity (HCT-116 [11]) was 52.35% and the IC50 (LoVo) was 22.8 µM. The Activity (HCT-116 [12]) was 3.86%, the inhibition at 20 µM (HCT-116 [13]) was 50% and the Activity (HCT-116 [14]) was “Active”. The IC50 (HCT-116 [15]) was 27.4 µM, the Activity (HCT-116 [16]) was “Active” and the IC50 (HT-29) was 27.3 µM. For the same molecule, the Activity (HCT-116 [17]) was “Active”, the IC50 [18] was over 500 µM and the inhibition at 25 µM (HCT-116 [19]) was 30%. For the same molecule, the Activity (HCT-116 [20]) was 72.91%, the Activity (HCT-116 [21]) was “Active” and the Activity (HCT-116 [22]) was “Active”. For the same molecule, the inhibition (HCT-116 [23]) was “Active”, the inhibition at 30 µM (HCT-116 [24]) was 70% and the inhibition (HCT-116 [25]) was “Dde”.
`C[C@H](CCC(=O)OCc1cc(O)cc(O)c1)[C@H]1CC[C@H]2[C@@H]3[C@H](O)C[C@@H]4C[C@H](O)CC[C@]4(C)[C@H]3CC[C@]12C` gave an IC50 (Huh-7) of 116 µM, an IC50 (RKO) of 76.9 µM and an inhibition at 10 µM (RAW264.7 [26]) of 35.5%. For the same molecule, the IC50 (SW480) was 69.4 µM, the IC50 (MGC-803) was 81.8 µM and the IC50 (RAW264.7 [27]) was 16.3 µM. The IC50 (SK-HEP1) was 156 µM, the IC50 (A549) was 127 µM and the IC50 (LoVo) was 56.7 µM. For the same molecule, the inhibition at 25 µM (RAW264.7 [28]) was 73.2%, the IC50 (HCT-116 [15]) was 64.5 µM and the Activity (RAW264.7 [29]) was “Dde”. For the same molecule, the IC50 (HT-29) was 40.9 µM and the IC50 [18] was over 200 µM.
With `C[C@H](CCC(=O)OCc1cc(O)cc(O)c1)[C@H]1CC[C@H]2[C@@H]3CC[C@@H]4C[C@H](O)CC[C@]4(C)[C@H]3CC[C@]12C` the IC50 (Huh-7) was over 200 µM, the IC50 (RKO) was 42.9 µM and the inhibition at 10 µM (RAW264.7 [26]) was 49%. The IC50 (SW480) was 134 µM, the IC50 (MGC-803) was 82.3 µM and the IC50 (RAW264.7 [27]) was 12.1 µM. For the same molecule, the IC50 (SK-HEP1) was over 200 µM, the IC50 (A549) was 124 µM and the IC50 (LoVo) was 59.8 µM. The Activity (RAW264.7 [30]) was 50%, the inhibition at 25 µM (RAW264.7 [28]) was 82.1% and the IC50 (HCT-116 [15]) was 50.3 µM. The IC50 (HT-29) was 45.4 µM and the IC50 [18] was over 200 µM.
